What was measured:
[1] = test system: primary melanocytes; conditions: primary melanocytes with ultraviolet (UV) radiation-induced DNA damage; Thompson B. C. et al. (2014); cited from earlier work
[2] = test system: collagen type I alpha 1 chain (COL1A1); test: Western blotting of COL1A1 in ELT-3 cells; format: cell-based, rat; conditions: 72 hours, normalized to GAPDH, vs control group
Method: (§1) First, the ELT-3 cells prepared in section 1 of “General Experimental Materials” were divided into 3 groups, including a control group, and two experimental groups (i.e., experimental groups 1 and 2). Each group of the ELT-3 cells was seeded at a concentration of 2×10^5 cells/well into a 10-cm Petri dish containing 2 mL of DMEM/F12 supplemented with 10% FBS and 1% penicillin-streptomycin, followed by cultivation in an incubator (37° C., 5% CO2) overnight.
(§2) Next, medium change was performed by adding a fresh culture medium supplemented with 1% FBS into the 10-cm Petri dish, followed by cultivation in an incubator (37° C., 5% CO2) for 24 hours. […]
(§3) After cultivation in an incubator (37° C., 5% CO2) for 72 hours, each of the cell cultures was mixed with 100 μL of a RIPA lysis buffer (BIOMAN, Cat. no. 20121701) containing protease inhibitor cocktail (Roche, Cat. no. 4693159001). […] The protein concentration in the total protein sample was determined using bicinchoninic acid (BCA) assay kit (T-Pro Biotechnology, Cat. no. JB04-D001) in accordance with the manufacturer's instructions. […]
(§4) Subsequently, ImageJ software was used for semi-quantitatively calculating the corresponding protein expression level. […]
(§5) The relative expression level was calculated using the following Equation (1): […]
(§6) The data thus obtained were analyzed according to the procedures as described in section 1 of “General Procedures”.

[3] = test system: alpha-smooth muscle actin (α-SMA); test: Western blotting of α-SMA in ELT-3 cells; format: cell-based, rat; conditions: 72 hours, normalized to GAPDH, vs control group
Method: as §1, §2, §3, §4, §5, §6

[4] = test system: fibronectin; test: Western blotting of ECM protein fibronectin in ELT-3 cells; format: cell-based, rat; conditions: 72 hours, normalized to GAPDH, vs control group
Method: as §1, §2, §3, §4, §5, §6

[5] = test system: Eker rat uterine leiomyoma cell line ELT-3; test: Colony formation assay; format: cell-based; conditions: ELT-3 cells, 3 days treatment then 7 to 10 days, vs control group, p<0.05
Method: (§7) Eker rat uterine leiomyoma cell line ELT-3 was purchased from the American Type Culture Collection (ATCC, Manassas, Va., USA). The ELT-3 cells were grown in a 6 cm Petri dish containing Dulbecco's Modified Eagle's Medium (DMEM)/F12 [1:1 (v/v)] (Cassion, Cat. no. DFP29) supplemented with 10% fetal bovine serum (FBS, Corning Inc., Cat. no. 35-010-CV) and 1% antibiotic-antimycotic (Corning Inc., Cat. no. 30-004-CI). The ELT-3 cells were cultivated in an incubator at 37° C. with 5% CO2. Medium change was performed every two to three days. Cell passage was performed when the cultured cells reached 80% to 90% of confluence.
First, the ELT-3 cells prepared in section 1 of “General Experimental Materials” were divided into 3 groups, including a control group, and two experimental groups (i.e., experimental groups 1 and 2). Each group of the ELT-3 cells was seeded at a concentration of 5×10^2 cells/well into a respective well of 6-well culture plates containing 2 mL of DMEM/F12 supplemented with 10% FBS and 1% penicillin-streptomycin, followed by cultivation in an incubator (37° C., 5% CO2) for 24 hours.
(§8) Next, medium change was performed by adding a fresh culture medium supplemented with 1% FBS into the 6-well culture plate. […]
as §6

[6] = test system: Eker rat uterine leiomyoma cell line ELT-3; test: Crystal violet staining assay (area density, viable cells); format: cell-based; conditions: ELT-3 cells, 48 hours, vs control group, p<0.001
Method: as §7
First, the ELT-3 cells prepared in section 1 of “General Experimental Materials” were divided into 3 groups, including a control group, and two experimental groups (i.e., experimental groups 1 and 2). Each group of the ELT-3 cells was seeded at a concentration of 1×10^5 cells/well into a respective well of 6-well culture plates containing 2 mL of DMEM/F12 supplemented with 10% FBS and 1% penicillin-streptomycin, followed by cultivation in an incubator (37° C., 5% CO2) for 24 hours.
as §8, §6

[7] = 20 mM nicotinamide (experimental group 1)
[8] = 50 mM nicotinamide (experimental group 2)

NC(=O)c1cccnc1 [nicotinamide]
significantly decreased: relative expression level of COL1A1 ([2]; 20 mM nicotinamide) | relative expression level of COL1A1 ([2]; 50 mM nicotinamide) | relative expression level of α-SMA ([3]; 20 mM nicotinamide) | relative expression level of α-SMA ([3]; 50 mM nicotinamide) | relative expression level of fibronectin ([4]; 20 mM nicotinamide) | relative expression level of fibronectin ([4]; 50 mM nicotinamide)
enhances DNA repair: DNA repair [1]
significant decrease: colony density [5, 7] | colony density [5, 8] | area density [6, 7] | area density [6, 8]

From patent US20250177370A1, “METHOD FOR ALLEVIATING UTERINE LEIOMYOMA USING NICOTINAMIDE” (TAIPEI MEDICAL UNIVERSITY, priority 2023, published 2025)
